From article PMC5451472, “Novel Locally Active Estrogens Accelerate Cutaneous Wound Healing-Part 2” (Scientific Reports, 2017)

Experiments:
[1] = tested on: ER transcriptional activity; experiment: In vivo BLI time course in wounded ovariectomized ERE-Luc mice, compounds s.c. around the wound; parameters: species or system mouse
Description: To study the estrogenic and healing properties of the two compounds, we generated a wound in the ERE-Luc mouse model and tested the activity of the two compounds administered s.c. in the area surrounding the wound as described in the methodology section.
Each group was composed of 4 ERE-Luc females’ mice ovariectomized 2 weeks’ prior the experiment to avoid any interference due to endogenous estrogens. Photon emission was measured in the living animals three times: at 0, 3 and 6 h after s.c. injection.
ERE-Luc and MITO-Luc mice were ovariectomized at two months of age; the experiment was done 2 weeks after surgery to allow the animals to recover and to decrease the levels of circulating estrogens. The animals were fed ad libitum with a special estrogen free diet (AIN 93 M, Mucedola) (Ciana et al. Endocrinology 2005) and housed in individually ventilated plastic cages within a temperature range of 22–25 °C, relative humidity of 50% ± 10% and under an automatic cycle of 12 h light/dark (lights on at 07:00 am). All animal experimentation was carried out in accordance with the ARRIVE and European Guidelines for Animal Care. All animal experiments were approved by the Italian Ministry of Research and University and controlled by a Departmental panel of experts. For the correct dosage of the compounds, the body weight of the animals (on empty stomach, fasted for at least 12–14 hours) was determined immediately before the treatment.
(§1) Ovariectomy was carried out as previously described. Wound healing was done after shaving by VEET depilatory cream a day before the treatment. The 1 cm full-thickness incisional wound was made through the skin and panniculus carnosus muscle of ovariectomized MITO-luc using a surgical scalpel (blade n°10, carbon steel, Swann-Morton Ltd). Round full-thickness wounds were done by cutting out a section of full-thickness skin (around 9 mm in diameter) using fine scissors on the dorsal skin of the isoflurane-anesthetized animal. For in vivo treatment the compounds were administered onto the subcutaneous area surrounding the wound by multiple subcutaneous injection, immediately after the generation of the wound.
(§2) For the semi-quantitative analysis of in vivo photon emission, animals were injected i.p. with 80 mg/kg of luciferin (Beetle Luciferin Potassium Salt; Promega, Madison, WI, USA) 15 min prior the imaging session. For the imaging, mice were anaesthetized using isofluorane (Isofluorane-Vet; Merial, Lyon, France) and kept under anesthesia during the 5 minutes of the session carried out with a CCD camera: both ventral and dorsal acquisition (Xenogen IVIS Lumina System; Caliper, PerkinElmer company). Photon emission in selected body areas was measured using the Living Image Software (Caliper, PerkinElmer company). The analysis was done in ventral view: whole body, thymus, hepatic area, abdomen, limbs, vagina and in dorsal view in wound area and expressed as photon/second/cm2/steradiant (p/s/cm2/sr).

[2] = tested on: ER transcriptional activity; experiment: Ex vivo BLI and luciferase enzymatic assay in organs of ERE-Luc mice; parameters: species or system mouse; settings: 200 µg/kg s.c., 6 hours after treatment
Description: We next examined photon emission in a series of organs excised from the mice euthanized at 6 hours after treatment by measuring photon emission with the CCD camera (Fig. 6a) and by the more sensitive enzymatic assay in tissue extracts of each organ (Fig. 6b).
The selected organs were dissected from the animals who had received luciferine 20 min before euthanasia. The tissues were immediately subjected to ex vivo imaging session of 5 minutes. Photon emission was quantified with the Living Image Software (Caliper, PerkinElmer company) for each tissue and expressed as p/s/cm2/sr.
Luciferase enzymatic activity was measured in cells or selected tissue homogenates by a luminometer (Glomax™96 microplate luminometer; Promega) using Promega standard luciferin (Beetle Luciferin Potassium Salt) and expressed as Relative Light Units over 10 sec/μg protein (RLU/μg protein). Proteins concentrations were measured by Bradford.

[3] = tested on: MITO-Luc mice; experiment: Wound area measurement in MITO-Luc mice; format: in vivo, mouse; settings: 200 µg/kg s.c., 72 hours after treatment (vehicle 50%)
Description: To investigate to which extent the increased proliferation observed after the pharmacological treatments was functional to the healing process, we measured the size of the wound (Fig. 9a).
as §1

[4] = tested on: ERE-Luc mice; experiment: Uterus weight of ERE-Luc mice; format: in vivo, mouse; settings: 200 µg/kg s.c., 6 h after treatment, n = 4
Description: The final study aiming at investigating the systemic effect of the NCE was done by measuring the uterus weight of all treated animal as the golden standard for the quantitative measure of estrogenic compounds.

[5] = tested on: MITO-Luc mice; experiment: Macrophage count (Iba1 immunohistochemistry) around the wound site; format: in vivo, mouse; settings: 200 µg/kg s.c., 72 hours after treatment
Description: To better understand whether the healing effect of 1e could be attributed to its anti-inflammatory action, at the end of in vivo imaging (72 hours after treatments) the tissue surrounding the wound was dissected and subjected immunohistochemical analysis using the pan macrophage marker Iba1. […] This observation confirmed that the estrogenic compounds were able to regulate the immune response at local level.
In particular, the criteria for the assignation of granulations value are: 1 = wound bed partially covered with granulation tissue; 2 = thin granulation over the whole wound bed; 3 = thick granulation over the whole wound bed. Evaluation of macrophages was done through a specific antibody and digital image analysis: 4 µm sections from each wound healing sample were immunostained with primary rabbit […] antibody against Iba1 antigen (Wako; #019-19741) to assess the number of macrophages.
The number of positive cells were counted using the ImageJ analysis program (http://rsb.info.nih.gov/ij/) in 400x microscopic fields selected at the periphery of the wound area.

[6] = tested on: ER transcriptional activity; experiment: Whole body in vivo bioluminescence imaging of ERE-Luc mice, dose-response after s.c. administration; parameters: species or system mouse; settings: for Photon Emission, whole body: 6 h vs 0 h, n = 4
Description: To investigate the activity of 1e and 1f at systemic level, we utilized the ERE-Luc reporter mice. The ERE-luc is a transgenic model obtained by random integration of a luciferase reporter driven by an estrogen-responsive promoter. The ubiquitous, regulated expression of luciferase was obtained by flanking the reporter construct with insulators.
Here, the first study we carried out was a large-range dose-response analysis to measure whole body luciferase assay after subcutaneous administration of: (1) the vehicle; (2) corn oil as control; (3) the two compounds 1e and 1f at the dosage of 20 μg/kg, 200 μg/kg, 2 mg/kg and 20 mg/kg. The mice (4 for each experimental group) were subjected to in vivo whole body imaging 6 h after the pharmacological treatment. This time was selected on the basis of previous studies showing that the peak of ER transcriptional activation generally occurs at 6–8 h after administration of the estrogenic compounds[16], [17].
as §2

CCCCOC(=O)CCC#C[C@]1(O)CC[C@H]2[C@@H]3CCc4cc(O)ccc4[C@H]3CC[C@@]21C [1e, 3,17β-Hydroxy-17α-(4′carbobutoxy-1′-butyn-1′-yl)estra-1,3,5-(10)-triene]
photon emission in body areas (whole body, thymus, hepatic area, abdomen, limbs, vagina) ([1]; 200 µg/kg s.c. around wound, 3 or 6 h, ovx mice): did not observe increased photon emission in any of the body areas | increase of photon emission in the wound area with respect to time 0 ([1]; 200 µg/kg s.c., 6 hours, trend): 30% | bioluminescence in excised organs (ex vivo BLI, enzymatic luciferase assay) [2]: did not induce bioluminescence in any of the organs investigated | wound area reduction [3]: 73% | weight of the uterus versus controls [4]: indistinguishable from controls | number of macrophages (Iba1 positive) in the wound area lower than in controls [5]: 25% | Photon Emission, whole body ([6]; 2 mg/kg s.c.): 3 x | Photon Emission, whole body ([6]; 20 mg/kg s.c.): 12 x | expression of the luciferase reporter ([6]; 2 and 20 mg/kg s.c., 6 h): induced the expression of the luciferase reporter around the area of subcutaneous injection and in some other body areas | effect at systemic level (whole body luciferase) ([6]; 20 and 200 μg/kg s.c., 6 h): did not induce any measurable effect
